Data as given in ChEMBL document CHEMBL1201862, “PubChem BioAssay data set” (2004).
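A five-concentration, 48-hour dose response in 96-well plates underlies each endpoint, interpolated linearly between surrounding concentrations. GI50 = concentration required for 50% inhibition of growth.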 Calls of active or inactive are those of the source. Cut-off read from the data, not from the text of the source: active = GI50 up to about 1.1 µM and inactive = higher.

Experiments:
Experiment in all cases: DTP human tumour cell line panel, 48 h
CAKI-1 = test system: CAKI-1
HCT-116 = test system: HCT-116
SNB-75 = test system: SNB-75
SF-295 = test system: SF-295
UACC-62 = test system: UACC-62
HOP-62 = test system: HOP-62
NCI-H522 = test system: NCI-H522
KM12 = test system: KM12
IGROV-1 = test system: IGROV-1
NCI-H226 = test system: NCI-H226
SNB-19 = test system: SNB-19
OVCAR-8 = test system: OVCAR-8
NCI-H460 = test system: NCI-H460
HOP-92 = test system: HOP-92
HT-29 = test system: HT-29
Malme-3M = test system: Malme-3M
SK-MEL-5 = test system: SK-MEL-5
TK-10 = test system: TK-10
K562 = test system: K562
RPMI-8226 = test system: RPMI-8226

SMILES	GI50 (CAKI-1)	GI50 (HCT-116)	GI50 (SNB-75)	GI50 (SF-295)	GI50 (UACC-62)	GI50 (HOP-62)	GI50 (NCI-H522)	GI50 (KM12)	GI50 (IGROV-1)	GI50 (NCI-H226)	GI50 (SNB-19)	GI50 (OVCAR-8)	GI50 (NCI-H460)	GI50 (HOP-92)	GI50 (HT-29)	GI50 (Malme-3M)	GI50 (SK-MEL-5)	GI50 (TK-10)	GI50 (K562)	GI50 (RPMI-8226)
CC(C)CNCCc1ccccn1	> 100 µM (inactive)	> 100 µM (inactive)	> 100 µM (inactive)	> 100 µM (inactive)	> 100 µM (inactive)	> 100 µM (inactive)	> 100 µM (inactive)	> 100 µM (inactive)	> 100 µM (inactive)	> 100 µM (inactive)	> 100 µM (inactive)	> 100 µM (inactive)	> 100 µM (inactive)	> 100 µM (inactive)	> 100 µM (inactive)	> 100 µM (inactive)	> 100 µM (inactive)	> 100 µM (inactive)	–	–
Cc1cnc(/C=N\NC(N)=S)c2cccc(N)c12	0.516 µM (active)	0.724 µM (active)	0.553 µM (active)	1.97 µM (inactive)	0.359 µM (active)	0.904 µM (active)	0.871 µM (active)	1.9 µM (inactive)	1.75 µM (inactive)	1.39 µM (inactive)	1.3 µM (inactive)	0.838 µM (active)	0.538 µM (active)	–	0.711 µM (active)	1.62 µM (inactive)	2.04 µM (inactive)	5.78 µM (inactive)	0.881 µM (active)	0.714 µM (active)
O=C1C(Cl)N(c2ccccc2)C1c1c[nH]c2ccccc12 (stereo not drawn)	–	> 100 µM (inactive)	> 100 µM (inactive)	> 100 µM (inactive)	> 100 µM (inactive)	> 100 µM (inactive)	> 100 µM (inactive)	> 100 µM (inactive)	> 100 µM (inactive)	–	48.9 µM (inactive)	> 100 µM (inactive)	> 100 µM (inactive)	> 100 µM (inactive)	> 100 µM (inactive)	> 100 µM (inactive)	> 100 µM (inactive)	> 100 µM (inactive)	> 100 µM (inactive)	> 100 µM (inactive)
c1ccc2cc3n[se]nc3cc2c1	> 100 µM (inactive)	–	56.9 µM (inactive)	39.4 µM (inactive)	> 100 µM (inactive)	–	> 100 µM (inactive)	> 100 µM (inactive)	48.8 µM (inactive)	–	81.1 µM (inactive)	> 100 µM (inactive)	–	–	> 100 µM (inactive)	> 100 µM (inactive)	68.1 µM (inactive)	> 100 µM (inactive)	> 100 µM (inactive)	> 100 µM (inactive)
O=c1[nH]c2c(c3ccccc13)CCc1ccccc1-2	> 100 µM (inactive)	> 100 µM (inactive)	> 100 µM (inactive)	> 100 µM (inactive)	> 10 µM (inactive)	–	> 100 µM (inactive)	> 100 µM (inactive)	> 100 µM (inactive)	> 100 µM (inactive)	> 100 µM (inactive)	> 100 µM (inactive)	–	–	> 100 µM (inactive)	> 100 µM (inactive)	> 100 µM (inactive)	> 100 µM (inactive)	> 100 µM (inactive)	> 100 µM (inactive)
COC(OC)C1OC(CO)C(n2cc(F)c(=O)[nH]c2=O)C1O (stereo not drawn)	> 100 µM (inactive)	> 100 µM (inactive)	> 100 µM (inactive)	> 100 µM (inactive)	> 100 µM (inactive)	> 100 µM (inactive)	> 100 µM (inactive)	> 100 µM (inactive)	> 100 µM (inactive)	> 100 µM (inactive)	> 100 µM (inactive)	> 100 µM (inactive)	> 100 µM (inactive)	> 100 µM (inactive)	> 100 µM (inactive)	–	–	> 100 µM (inactive)	> 100 µM (inactive)	> 100 µM (inactive)
COc1nc2ccc(CNc3ccc(C(=O)NC(CCC(=O)O)C(=O)O)cc3)cc2nc1OC (stereo not drawn)	–	–	> 100 µM (inactive)	> 100 µM (inactive)	> 100 µM (inactive)	> 100 µM (inactive)	> 100 µM (inactive)	> 100 µM (inactive)	> 100 µM (inactive)	> 100 µM (inactive)	> 100 µM (inactive)	> 100 µM (inactive)	> 100 µM (inactive)	–	> 100 µM (inactive)	90.8 µM (inactive)	> 100 µM (inactive)	> 100 µM (inactive)	25.3 µM (inactive)	> 100 µM (inactive)
C/C(=C1/N=C(c2cc([N+](=O)[O-])ccc2Cl)N(c2ccc(Br)cc2)C1=O)c1cc2ccccc2oc1=O	12.9 µM (inactive)	24.5 µM (inactive)	33.8 µM (inactive)	80.5 µM (inactive)	18.2 µM (inactive)	> 100 µM (inactive)	10.6 µM (inactive)	21.8 µM (inactive)	26.1 µM (inactive)	> 100 µM (inactive)	55.8 µM (inactive)	81.8 µM (inactive)	26.3 µM (inactive)	–	42.1 µM (inactive)	34.8 µM (inactive)	23.4 µM (inactive)	–	34.4 µM (inactive)	26.6 µM (inactive)
CC(C)OP(=O)(OC(C)C)/C(I)=N/Nc1ccc([N+](=O)[O-])cc1	> 100 µM (inactive)	> 100 µM (inactive)	> 100 µM (inactive)	> 100 µM (inactive)	> 100 µM (inactive)	> 100 µM (inactive)	> 100 µM (inactive)	> 100 µM (inactive)	> 100 µM (inactive)	–	> 100 µM (inactive)	> 100 µM (inactive)	> 100 µM (inactive)	> 100 µM (inactive)	> 100 µM (inactive)	> 100 µM (inactive)	> 100 µM (inactive)	> 100 µM (inactive)	> 100 µM (inactive)	> 100 µM (inactive)
O=c1oc2ccccc2n1P(=O)(n1c(=O)oc2ccccc21)n1c(=O)oc2ccccc21	> 100 µM (inactive)	> 100 µM (inactive)	90.2 µM (inactive)	> 100 µM (inactive)	> 100 µM (inactive)	> 100 µM (inactive)	> 100 µM (inactive)	> 100 µM (inactive)	> 100 µM (inactive)	> 100 µM (inactive)	> 100 µM (inactive)	–	> 100 µM (inactive)	> 100 µM (inactive)	> 100 µM (inactive)	> 100 µM (inactive)	–	> 100 µM (inactive)	> 100 µM (inactive)	–
O=C1OC2(OC2c2ccc(Cl)cc2)c2ccccc21 (stereo not drawn)	> 100 µM (inactive)	> 100 µM (inactive)	48.1 µM (inactive)	85.7 µM (inactive)	> 100 µM (inactive)	20.4 µM (inactive)	31.9 µM (inactive)	71.1 µM (inactive)	> 100 µM (inactive)	> 100 µM (inactive)	73.8 µM (inactive)	> 100 µM (inactive)	> 100 µM (inactive)	> 100 µM (inactive)	> 100 µM (inactive)	> 100 µM (inactive)	–	> 100 µM (inactive)	53.1 µM (inactive)	89.1 µM (inactive)
C=CCP(=O)(CC=C)C(Cl)Cl	> 100 µM (inactive)	> 100 µM (inactive)	> 100 µM (inactive)	> 100 µM (inactive)	–	> 100 µM (inactive)	> 100 µM (inactive)	–	> 100 µM (inactive)	> 100 µM (inactive)	> 100 µM (inactive)	> 100 µM (inactive)	> 100 µM (inactive)	> 100 µM (inactive)	> 100 µM (inactive)	–	> 100 µM (inactive)	> 100 µM (inactive)	> 100 µM (inactive)	> 100 µM (inactive)
O=[N+]([O-])C(=C/c1ccccc1)/C(=C\c1ccccc1)[N+](=O)[O-]	15.7 µM (inactive)	17.8 µM (inactive)	18.4 µM (inactive)	18.7 µM (inactive)	16.6 µM (inactive)	19.1 µM (inactive)	–	15.4 µM (inactive)	16.8 µM (inactive)	19.1 µM (inactive)	18.2 µM (inactive)	20 µM (inactive)	14.8 µM (inactive)	21.3 µM (inactive)	17.6 µM (inactive)	–	15.9 µM (inactive)	16.1 µM (inactive)	7.11 µM (inactive)	10.3 µM (inactive)
Cc1ccc(S(N)(C(=O)Nc2cccc3ccccc23)[N+](=O)[O-])cc1 (stereo not drawn)	> 100 µM (inactive)	66.7 µM (inactive)	> 100 µM (inactive)	89.7 µM (inactive)	> 100 µM (inactive)	> 100 µM (inactive)	–	> 100 µM (inactive)	> 100 µM (inactive)	> 100 µM (inactive)	92.5 µM (inactive)	> 100 µM (inactive)	> 100 µM (inactive)	> 100 µM (inactive)	> 100 µM (inactive)	> 100 µM (inactive)	93.3 µM (inactive)	72.4 µM (inactive)	55 µM (inactive)	48.6 µM (inactive)
COc1cc(Br)c(CC2C3=C(CCN2C(=O)C2CCC2)CC(=O)CC3)cc1O (stereo not drawn)	–	30.3 µM (inactive)	26.8 µM (inactive)	33.5 µM (inactive)	15.6 µM (inactive)	44.2 µM (inactive)	14.5 µM (inactive)	27.2 µM (inactive)	36.3 µM (inactive)	41.9 µM (inactive)	51.2 µM (inactive)	38 µM (inactive)	45.3 µM (inactive)	20.4 µM (inactive)	24.9 µM (inactive)	28.3 µM (inactive)	28.6 µM (inactive)	30.4 µM (inactive)	21.6 µM (inactive)	32.7 µM (inactive)
